Measurements published in patent US12239705B2, “Therapeutic mitigation of epithelial infection” (priority 2018, dated 2025).

How the values were obtained:
[1] = system: vaccinia virus; test: Vaccinia virus plaque formation in IL-4/13-treated PHFK exposed to P6; type: cell-based; conditions: PHFK in IL-4 and IL-13; 50 or 200 nM; 200 pfu VV; three days post infection; n=7 donors
[2] = system: PHFK cells; test: TEER barrier function of IL-4/13-treated PHFK exposed to P6; type: cell-based, human; conditions: PHFK in IL-4 and IL-13 for two days; 50 or 100 nM; versus DMSO control
Procedure: TEER was taken daily. Data was normalized to Th2 treated samples (n=5-7 donors for TEER (SEM)). Significance was tested versus a DMSO control.

[3] = system: PHFK cells; test: Cell viability of differentiated PHFK by LDH and WST-1 assay; conditions: PHFK differentiated 2 days; 24 hours
Procedure: Briefly, PHFK cells were differentiated for 2 days in the same manner described above. […] Cell viability was measured by LDH and WST-1 assay 24 hours later.

## CC(C)(C)c1nc2c3cc[nH]c(=O)c3c3cc(F)ccc3c2[nH]1 [P6, Pyridone 6]
[1]
  keratinocyte susceptibility to viral infection (plaque number normalized to IL-4/13 treated controls): reversed keratinocyte susceptibility to viral infection in a dose dependent manner
[2]
  barrier function (TEER normalized to Th2 treated samples): improved barrier function in keratinocytes in a dose dependent manner
[3]
  concentration not toxic to keratinocytes (LDH and WST-1): ≥ 1000 nM
